Assay results taken from ChEMBL document CHEMBL5360674, “Discovery of Naphthol Tetramers from Endolichenic Fungus Daldinia childiae 047219 Based on MS/MS Molecular Networking” (2023).

Assays:
RAW264.7 [1] = assay: Antiinflammatory activity in mouse RAW264.7 cells assessed as reduction in LPS-induced NO production preincubated for 2 hrs followed by LPS stimulation and measured after 24 hrs by Griess reagent-based assay; type: functional, cell-based; settings: dose 5-50 µM, time 26.0 hrs
RAW264.7 [2] = assay: Antiinflammatory activity in mouse RAW264.7 cells assessed as reduction in LPS-induced NO production at 25 to 50 uM preincubated for 2 hrs followed by LPS stimulation and measured after 24 hrs by Griess reagent-based assay relative to control; type: functional; design: scale not given: the % may be the effect or the level left; settings: dose 25-50 µM, time 26 hrs
RAW264.7 [3] = assay: Antiinflammatory activity in mouse RAW264.7 cells assessed as reduction in LPS-induced NO production at 10 uM preincubated for 2 hrs followed by LPS stimulation and measured after 24 hrs by Griess reagent-based assay relative to control; type: functional; design: scale not given: the % may be the effect or the level left; settings: time 26 hrs

Row | Structure (SMILES) | Activity (RAW264.7 [1]) | Activity (RAW264.7 [2]) [%] | Activity (RAW264.7 [3]) [%]
1 | COc1cccc2ccc(-c3ccc(O)c4c(OC)cccc34)c(O)c12 | Dose-Dependent Effect | 50 | 
2 | C[C@@H]1C[C@H]2[C@@H]3CCC4=CC(=O)C=C[C@]4(C)[C@@]3(F)[C@@H](O)C[C@]2(C)[C@@]1(O)C(=O)CO [DEXAMETHASONE] |  |  | 50
3 | COc1cccc2ccc(-c3ccc4cccc(OC)c4c3O)c(O)c12 | Dose-Dependent Effect | 50 | 
4 | COc1cccc2ccc(-c3cc(-c4ccc(O)c5c(OC)cccc45)c4cccc(OC)c4c3O)c(O)c12 | Dose-Dependent Effect | 50 | 
